These results are taken from ChEMBL document CHEMBL1909046, “DrugMatrix in vitro pharmacology data”.

In test [1] the target is Beta-1 adrenergic receptor (Homo sapiens, UniProt P08588). The test is described as follows: DRUGMATRIX: Adrenergic beta1 radioligand binding (ligand: [125I] Cyanopindolol). Format: cell membranes, CHO-K1, Membrane. Particulars: cho-k1; Not Active = under 50% inhibition at 10 µM.
Test [2] can be described thus: DRUGMATRIX: Tumor Necrosis Factor (TNF), Non-Selective radioligand binding (ligand: [125I] TNF-alpha). Format: cell membranes, Membrane. Particulars: u-937; Not Active = under 50% inhibition at 10 µM.
Test [3] addresses C-C chemokine receptor type 2 (Homo sapiens, UniProt P41597). In kind it is cell membranes, Membrane. Particulars: cho-k1.
The target in the next test is D(3) dopamine receptor (Homo sapiens, UniProt P35462). The test is described as follows: DRUGMATRIX: Dopamine D3 radioligand binding (ligand: [3H] Spiperone). Format: cell membranes, CHO, Membrane.
Another test addresses T1, Endothelin-1 receptor (Homo sapiens, UniProt P25101).
T1 sequence (P25101 whole entry): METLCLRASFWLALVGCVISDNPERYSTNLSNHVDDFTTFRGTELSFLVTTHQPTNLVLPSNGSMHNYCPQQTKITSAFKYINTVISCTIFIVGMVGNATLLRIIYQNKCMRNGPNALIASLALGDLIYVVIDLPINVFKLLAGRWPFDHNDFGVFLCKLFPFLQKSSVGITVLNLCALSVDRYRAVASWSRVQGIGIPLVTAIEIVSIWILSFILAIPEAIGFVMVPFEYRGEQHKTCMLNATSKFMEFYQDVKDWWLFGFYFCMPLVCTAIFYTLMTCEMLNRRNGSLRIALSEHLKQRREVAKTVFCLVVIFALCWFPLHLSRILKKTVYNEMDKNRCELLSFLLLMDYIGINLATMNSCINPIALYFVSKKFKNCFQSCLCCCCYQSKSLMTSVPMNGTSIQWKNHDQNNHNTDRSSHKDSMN
In kind it is cell membranes, Membrane. Particulars: cho-k1.

For the next test, the target named is Histamine H2 receptor (Homo sapiens, UniProt P25021). In kind it is cell membranes, CHO-K1, Membrane. Particulars: cho-k1. Further: in other assays of this panel Not Active means under 50% inhibition at 10 µM.
In the next test the target is T2, Cathepsin G (Homo sapiens, UniProt P08311).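 Further: inhibition of Cathepsin G enzyme activity, tested on an AMC-conjugated peptide substrate; in other assays of this panel Not Active means under 50% inhibition at 10 µM.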
T2 sequence (P08311 whole entry): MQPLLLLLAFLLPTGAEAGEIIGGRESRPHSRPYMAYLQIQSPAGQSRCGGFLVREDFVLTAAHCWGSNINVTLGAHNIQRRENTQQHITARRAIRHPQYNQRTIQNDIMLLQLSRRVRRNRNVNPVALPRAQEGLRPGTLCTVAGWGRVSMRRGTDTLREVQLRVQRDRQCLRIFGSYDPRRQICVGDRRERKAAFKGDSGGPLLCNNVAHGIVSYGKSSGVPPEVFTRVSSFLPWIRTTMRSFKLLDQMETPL
Format: tissue-based. Particulars: neutrophil.

The structures appear in SMILES notation.

C-C chemokine receptor type 2, sequence (P41597 whole entry): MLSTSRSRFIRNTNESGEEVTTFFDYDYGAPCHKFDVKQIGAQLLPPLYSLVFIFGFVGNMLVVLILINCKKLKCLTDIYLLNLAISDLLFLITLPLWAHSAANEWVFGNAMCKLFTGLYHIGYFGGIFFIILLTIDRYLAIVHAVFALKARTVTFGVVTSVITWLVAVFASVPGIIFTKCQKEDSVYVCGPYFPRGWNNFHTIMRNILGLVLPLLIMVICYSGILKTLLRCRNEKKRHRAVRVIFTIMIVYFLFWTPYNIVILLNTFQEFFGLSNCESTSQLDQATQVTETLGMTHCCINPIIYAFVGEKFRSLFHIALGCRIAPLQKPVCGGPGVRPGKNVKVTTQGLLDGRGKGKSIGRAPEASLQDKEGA
Beta-1 adrenergic receptor, sequence (P08588 whole entry): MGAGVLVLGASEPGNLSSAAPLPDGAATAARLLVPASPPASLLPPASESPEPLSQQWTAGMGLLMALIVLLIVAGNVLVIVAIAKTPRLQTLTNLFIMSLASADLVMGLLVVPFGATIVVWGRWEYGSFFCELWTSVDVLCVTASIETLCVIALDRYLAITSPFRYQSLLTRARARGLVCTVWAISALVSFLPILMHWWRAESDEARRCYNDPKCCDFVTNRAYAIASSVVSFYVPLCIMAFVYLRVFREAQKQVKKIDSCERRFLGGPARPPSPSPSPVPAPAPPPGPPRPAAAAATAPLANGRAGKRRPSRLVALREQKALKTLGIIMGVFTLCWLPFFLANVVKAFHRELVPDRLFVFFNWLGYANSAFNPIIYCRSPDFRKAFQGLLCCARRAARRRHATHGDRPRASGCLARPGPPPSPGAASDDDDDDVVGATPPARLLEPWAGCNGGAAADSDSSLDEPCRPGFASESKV
Histamine H2 receptor, sequence (P25021 whole entry): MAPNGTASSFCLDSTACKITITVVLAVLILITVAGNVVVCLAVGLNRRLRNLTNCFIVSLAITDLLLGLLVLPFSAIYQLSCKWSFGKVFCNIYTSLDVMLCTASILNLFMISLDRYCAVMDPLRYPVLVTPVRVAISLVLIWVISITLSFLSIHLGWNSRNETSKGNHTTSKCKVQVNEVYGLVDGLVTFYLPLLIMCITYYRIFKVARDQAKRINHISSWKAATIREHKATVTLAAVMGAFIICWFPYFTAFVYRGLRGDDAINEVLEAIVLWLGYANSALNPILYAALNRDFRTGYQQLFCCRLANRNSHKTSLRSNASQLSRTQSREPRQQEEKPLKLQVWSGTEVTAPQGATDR
D(3) dopamine receptor, sequence (P35462 whole entry): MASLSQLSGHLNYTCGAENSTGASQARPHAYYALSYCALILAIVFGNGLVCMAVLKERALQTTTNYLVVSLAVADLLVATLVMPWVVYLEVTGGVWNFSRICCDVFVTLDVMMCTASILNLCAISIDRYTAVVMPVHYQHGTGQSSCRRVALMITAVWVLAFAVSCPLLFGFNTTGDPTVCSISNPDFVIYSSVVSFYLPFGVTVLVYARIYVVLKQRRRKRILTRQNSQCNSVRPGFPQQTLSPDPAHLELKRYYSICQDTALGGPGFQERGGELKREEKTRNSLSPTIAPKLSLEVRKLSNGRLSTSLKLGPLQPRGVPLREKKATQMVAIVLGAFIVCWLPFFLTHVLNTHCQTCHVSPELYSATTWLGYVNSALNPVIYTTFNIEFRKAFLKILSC

A word on the IC50: it is the concentration at which inhibition is half-maximal. Broadly, the Ki is a measure of affinity in units of concentration, obtained from inhibition or displacement. As for `CO[C@H]1/C=C/O[C@@]2(C)Oc3c(C)c(O)c4c(O)c(c(/C=N/N5CCN(C6CCCC6)CC5)c(O)c4c3C2=O)NC(=O)/C(C)=C\C=C\[C@H](C)[C@H](O)[C@@H](C)[C@@H](O)[C@@H](C)[C@H](OC(C)=O)[C@@H]1C` [RIFAPENTINE], the IC50 result (in test [1]; in test [2]; in test [3]; on D(3) dopamine receptor (cho); against Endothelin-1 receptor; against Histamine H2 receptor) was “Not Active” in each case. Further, the IC50 entry at Cathepsin G is “Not Active”. Moreover, the Ki entry in test [2] is given as “Not Active”.

As for `CCCCOc1cc(CC2CNC(=O)N2)ccc1OC` (stereo not given) [RO-201724], the IC50 result (in test [1]; in test [2]; in test [3]; on D(3) dopamine receptor (cho); at Endothelin-1 receptor; against Histamine H2 receptor) was “Not Active” throughout. Moreover, the IC50 result against Cathepsin G is “Not Active”. The Ki result in test [2] is “Not Active”.

On to `CC[C@@H](C(=O)[C@@H](C)[C@@H](O)[C@H](C)[C@@H]1O[C@@H]([C@@H](CC)C(=O)O)CC[C@@H]1C)[C@H]1O[C@]2(C=C[C@@H](O)[C@]3(CC[C@@](C)([C@H]4CC[C@](O)(CC)[C@H](C)O4)O3)O2)[C@H](C)C[C@@H]1C` [SALINOMYCIN], for which the IC50 entry (in test [1]; in test [2]; in test [3]; at D(3) dopamine receptor (cho); at Endothelin-1 receptor; on Histamine H2 receptor) was “Not Active” in each case. Besides, the IC50 result against Cathepsin G is “Not Active”. In addition, the Ki result in test [2] is “Not Active”.

As to `O=C(Oc1ccccc1C(=O)O)c1ccccc1O` [SALSALATE], the IC50 result (in test [1]; in test [2]; in test [3]; at D(3) dopamine receptor (cho); at Endothelin-1 receptor; against Histamine H2 receptor) was “Not Active” throughout. Moreover, the IC50 result against Cathepsin G is “Not Active”. Also, the Ki entry in test [2] is “Not Active”.

As for `O=C(O)c1cn(-c2ccc(F)cc2)c2cc(N3CCNCC3)c(F)cc2c1=O` [SARAFLOXACIN], the IC50 entry (in test [1]; in test [2]; in test [3]; at D(3) dopamine receptor (cho); against Endothelin-1 receptor; against Histamine H2 receptor) was “Not Active” in each case. The IC50 entry at Cathepsin G is “Not Active”. In addition, in test [2], the Ki result is “Not Active”.

With `O.O.O.O.O.O.[Cl-].[Cl-].[Sr+2]` [STRONTIUM CHLORIDE HEXAHYDRATE], the half-inhibitory concentration (IC50) result (in test [1]; in test [2]; in test [3]; at D(3) dopamine receptor (cho); on Endothelin-1 receptor; against Histamine H2 receptor) was “Not Active” in each case. Also, the IC50 result against Cathepsin G is given as “Not Active”. The Ki result in test [2] was “Not Active”.

As to `O=C1C(CC[S+]([O-])c2ccccc2)C(=O)N(c2ccccc2)N1c1ccccc1` (stereo not given) [SULFINPYRAZONE], the IC50 result (in test [1]; in test [2]; in test [3]; at D(3) dopamine receptor (cho); at Endothelin-1 receptor; at Histamine H2 receptor) was “Not Active” each time. For the same molecule, the IC50 result at Cathepsin G is given as “Not Active”. Besides, the Ki entry in test [2] is recorded as “Not Active”.

Turning to `NC(=O)N1C(=O)/C(=C(\O)c2cccs2)c2cc(Cl)ccc21` [TENIDAP], the half-inhibitory concentration (IC50) entry (in test [1]; in test [2]; in test [3]; on D(3) dopamine receptor (cho); at Endothelin-1 receptor; at Histamine H2 receptor) was “Not Active” in each case. Moreover, at Cathepsin G, the IC50 result is listed as “Not Active”. Further, the Ki result in test [2] is given as “Not Active”.

Consider `COc1cc2nc(N3CCN(C(=O)C4CCCO4)CC3)nc(N)c2cc1OC` (stereo not given) [TERAZOSIN], for which the IC50 result (in test [1]; in test [2]; in test [3]; at D(3) dopamine receptor (cho); at Endothelin-1 receptor; against Histamine H2 receptor) was “Not Active” throughout. In addition, the 50% inhibitory concentration (IC50) result against Cathepsin G is listed as “Not Active”. Also, the inhibitory constant (Ki) entry in test [2] is recorded as “Not Active”.

Regarding `CN(C/C=C/C#CC(C)(C)C)Cc1cccc2ccccc12` [TERBINAFINE], the half-inhibitory concentration (IC50) result (in test [1]; in test [2]; in test [3]; at D(3) dopamine receptor (cho); against Endothelin-1 receptor; on Histamine H2 receptor) was “Not Active” each time. In addition, on Cathepsin G, the half-inhibitory concentration (IC50) result is recorded as “Not Active”. The Ki result in test [2] is listed as “Not Active”.

Take `CCCCNc1ccc(C(=O)OCCN(C)C)cc1` [TETRACAINE]: the IC50 entry (in test [1]; in test [2]; in test [3]; at D(3) dopamine receptor (cho); at Endothelin-1 receptor; against Histamine H2 receptor) was “Not Active” each time. The IC50 entry at Cathepsin G was “Not Active”. Further, the Ki entry in test [2] is listed as “Not Active”.

On to `Cn1c(=O)c2nc[nH]c2n(C)c1=O.O` [THEOPHYLLINE], for which the IC50 entry (in test [1]; in test [2]; in test [3]; on D(3) dopamine receptor (cho); against Endothelin-1 receptor; on Histamine H2 receptor) was “Not Active” in each case. Besides, at Cathepsin G, the 50% inhibitory concentration (IC50) result is recorded as “Not Active”. Further, the Ki result in test [2] was “Not Active”.

Regarding `CS(=O)(=O)c1ccc([C@@H](O)[C@@H](CO)NC(=O)C(Cl)Cl)cc1` [THIAMPHENICOL], the IC50 entry (in test [1]; in test [2]; in test [3]; at D(3) dopamine receptor (cho); against Endothelin-1 receptor; on Histamine H2 receptor) was “Not Active” throughout. The half-maximal inhibitory concentration (IC50) result against Cathepsin G was “Not Active”. For the same molecule, the Ki entry in test [2] is listed as “Not Active”.

For `CCN(CC)CCNC(=O)c1cc(S(C)(=O)=O)ccc1OC` [TIAPRIDE], the IC50 entry is “Not Active” in test [1]; “Not Active” in test [2]; “Not Active” in test [3]; 1150 nM on D(3) dopamine receptor (read-out: IC50); “Not Active” at Endothelin-1 receptor; “Not Active” on Histamine H2 receptor. Besides, at Cathepsin G, the IC50 result is on record as “Not Active”. For the same molecule, the Ki entry in test [2] was “Not Active”; at D(3) dopamine receptor (read-out: Ki), 390 nM.

With `Clc1ccccc1CN1CCc2sccc2C1` [TICLOPIDINE], the IC50 entry (in test [1]; in test [2]; in test [3]; on D(3) dopamine receptor (cho); against Endothelin-1 receptor; at Histamine H2 receptor) was “Not Active” each time. Moreover, on Cathepsin G, the IC50 result is given as “Not Active”. For the same molecule, the Ki entry in test [2] was “Not Active”.

`NC1CCN(c2nc3c(cc2F)c(=O)c(C(=O)O)cn3-c2ccc(F)cc2F)C1` (stereo not given) [TOSUFLOXACIN]: the half-maximal inhibitory concentration (IC50) entry (in test [1]; in test [2]; in test [3]; on D(3) dopamine receptor (cho); at Endothelin-1 receptor; against Histamine H2 receptor) was “Not Active” in each case. At Cathepsin G, the IC50 entry is listed as “Not Active”. In test [2], the inhibition constant (Ki) result is “Not Active”.

For the molecule `O=C(Nc1ccc(Br)cc1)c1cc(Br)cc(Br)c1O` [TRIBROMSALAN], the 50% inhibitory concentration (IC50) result (in test [1]; in test [2]; in test [3]; at D(3) dopamine receptor (cho); at Endothelin-1 receptor; against Histamine H2 receptor) was “Not Active” each time. Also, at Cathepsin G, the IC50 result is listed as “Not Active”. Moreover, the inhibition constant Ki result in test [2] is recorded as “Not Active”.

In the case of `CC(c1cc2ccccc2s1)N(O)C(N)=O` (stereo not given) [ZILEUTON], the concentration for half-maximal inhibition (IC50) entry (in test [1]; in test [2]; in test [3]; at D(3) dopamine receptor (cho); against Endothelin-1 receptor; against Histamine H2 receptor) was “Not Active” throughout. In addition, the IC50 result at Cathepsin G was “Not Active”. For the same molecule, in test [2], the Ki result is recorded as “Not Active”.
